We go through seven compounds from BindingDB's records for doi:10.1016/j.bmc.2010.06.094 (Shahid Beheshti University of Medical Sciences, 2010).

For test [1], the target named is Prostaglandin G/H synthase 1 / COX-1 (Ovis aries) (UniProt P05979). Nature of the test: Inhibition of sheep COX1.
Test [2] deals with Prostaglandin G/H synthase 2 / COX-2 (Ovis aries) (UniProt P79208). Nature of the test: Inhibition of sheep COX2.

Where only a bound is given, the exact number is not on record here.

Broadly, the IC50 is the point on the concentration scale where inhibition reaches its midpoint. Higher therefore signals weaker potency in that assay. Turning to `CS(=O)(=O)c1ccc(-c2cc(C(=O)O)c3ccccc3n2)cc1` [2-(4-(methylsulfonyl)phenyl)-quinoline-4-carboxylic acid], half-maximal inhibition in test [1] (IC50) required 13.4 µM.
Turning to `CC(=O)Nc1ccc(-c2cc(C(=O)O)c3cc(C(=O)c4ccccc4)ccc3n2)cc1` [2-(4-acetamido)phenyl)-6-benzoyl-quinoline-4-carboxylic acid], the concentration for half-maximal inhibition (IC50) in test [1] worked out at 21.8 µM; in test [2], 0.085 µM.
With `CC(=O)Nc1ccc(-c2cc(C(=O)O)c3cccc(C(=O)c4ccccc4)c3n2)cc1` [2-(4-acetamido)phenyl)-8-benzoyl-quinoline-4-carboxylic acid], the results for the IC50 in test [1] and in test [2] were 9.2 µM and 0.08 µM, respectively.
Taken in the same sequence, the figures for `[N-]=[N+]=Nc1ccc(-c2cc(C(=O)O)c3cc(C(=O)c4ccccc4)ccc3n2)cc1` [2-(4-azido)phenyl)-6-benzoyl-quinoline-4-carboxylic acid] were more than 100 µM and 0.077 µM.
Taken in the same sequence, the figures for `[N-]=[N+]=Nc1ccc(-c2cc(C(=O)O)c3cccc(C(=O)c4ccccc4)c3n2)cc1` [2-(4-azido)phenyl)-8-benzoyl-quinoline-4-carboxylic acid] were 65.5 µM and 0.057 µM.
On to `CS(=O)(=O)c1ccc(-c2cc(C(=O)O)c3cc(C(=O)c4ccccc4)ccc3n2)cc1` [6-benzoyl-2-(4-(methylsulfonyl)phenyl)quinoline-4-carboxylic acid], for which the values for the IC50 in test [1] and in test [2] were 24.4 µM and 0.077 µM, respectively.
On to `CS(=O)(=O)c1ccc(-c2cc(C(=O)O)c3cccc(C(=O)c4ccccc4)c3n2)cc1` [8-benzoyl-2-(4-(methylsulfonyl)phenyl)quinoline-4-carboxylic acid], for which the half-inhibitory concentration (IC50) in test [1] was 15.9 µM; in test [2], 0.069 µM.
